Structures can show the parent of a compound that is named as a salt.
The molecules below were run on collagen-induced aggregation of platelets (human plasma with a high platelet content) (assay: Inhibition of collagen-induced aggregation of thrombocytes in vitro (method of Born)). Conditions: 0.3 μmol/ml.
Type: cell-based
From the text: The aggregation of platelets in the presence of the compounds of the invention has been tested by the collagen-induced aggregation method of Born., Nature 4832/927, 29 (1962). The effect of the compounds in inhibiting thrombocyte aggregation was investigated in vitro on human plasma with a high platelet content.
The percentage inhibition of collagen-induced aggregation in vitro by compounds from the Examples indicated in Table 3, or combinations thereof with heparin, at a final concentration of 0.3 or 0.6 μmol of compound per ml of human plasma with a high platelet content, can be seen from the following Table.

Point of comparison: `O=C(O)CCCCCCCn1c(-c2ccccc2)c[nH]c1=O` [Example 1c, sodium salt of 8-(2-oxo-5-phenyl-4-imidazolin-1-yl)-caprylic acid], “% inhibition compared with the control (collagen-induced aggregation)” value 80%. Against it:
- O=C(O)CCCCCCn1c(-c2ccccc2)c[nH]c1=O [Example 2c] — lower, 46%
- O=C(O)CCCCCCn1c(-c2ccc(Cl)cc2)c[nH]c1=O [Example 5c] — lower, 63%

Reference: patent US4330550A, “Oxoimidazolinealkanoic acids and their salts and esters, their preparation and pharmaceutical compositions containing them” (A. Nattermann & Cie. GmbH, priority 1979, dated 1982)
